pEC50: −log10 of the molar value.
What was measured:
[1] = biological target: T1, Glutathione-S-transferase-labeled FXR human protein (Homo sapiens, UniProt Q96RI1); assay: FXR biochemical experiment (AlphaScreen, coactivator recruitment); conditions: for pEC50: AlphaScreen, GST-FXR human protein + biotin-labeled steroid receptor coactivator, read-out: FXR enzyme activity EC50; for Emax: ratio of highest signal of the compound to that of the reference compound, read-out: FXR enzyme activity Efficacy
T1 construct: purchased Invitrogen
T1 sequence (Q96RI1 1-486): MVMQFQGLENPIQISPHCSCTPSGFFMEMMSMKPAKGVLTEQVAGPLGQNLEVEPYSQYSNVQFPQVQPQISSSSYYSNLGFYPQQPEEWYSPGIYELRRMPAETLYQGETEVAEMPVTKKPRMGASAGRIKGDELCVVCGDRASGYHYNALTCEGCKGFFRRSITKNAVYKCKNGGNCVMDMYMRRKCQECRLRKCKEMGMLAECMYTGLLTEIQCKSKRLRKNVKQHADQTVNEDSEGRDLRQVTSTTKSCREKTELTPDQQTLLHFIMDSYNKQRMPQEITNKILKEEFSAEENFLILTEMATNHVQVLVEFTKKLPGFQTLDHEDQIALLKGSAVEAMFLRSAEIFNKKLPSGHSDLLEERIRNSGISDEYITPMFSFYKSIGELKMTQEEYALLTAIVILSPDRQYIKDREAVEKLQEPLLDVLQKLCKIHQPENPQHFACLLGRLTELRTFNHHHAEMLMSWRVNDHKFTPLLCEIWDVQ
Method: FXR Biochemical Experiment Experimental Purpose: The activation effect of the compound on FXR binding reaction was detected by AlphaScreen. […] Protein: Glutathione-S-transferase-labeled FXR human protein (Invitrogen) 2. Co-activator: Biotin-labeled steroid receptor coactivator (Anaspec) 3. […] Compound Dilution: The compound to be tested was prepared as a 40 μM DMSO solution, and then diluted 3-fold to 10 concentration points. The reference compound was prepared as a 400 μM DMSO solution, and then diluted 1.5-fold to 10 concentration points. The diluted DMSO solution was added to the wells of a 384-well plate in a volume of 150 nL per well. 2. […] 4. […] The operation during the experimental process was protected from light. The incubation was performed for 1 hour at room temperature. 5. […] The operation during the experimental process was protected from light. The incubation was performed for 1 hour at room temperature. 6. EC50 test: Envision was used with excitation at 680 nm to read the […] signals at 520-620 nm. 7. Analytical data: The data were analyzed via using Prism 5.0, and the EC50 values of the activation effects of the compounds were calculated.

[2] = biological target: T2, FXR (FXR HEK 293T DA cell line) (Homo sapiens, UniProt Q96RI1); assay: FXR cell experiment (β-lactamase reporter gene, GeneBLAzer); assay type: cell-based; conditions: for pEC50: FXR HEK 293T DA cells, β-lactamase reporter, 16 hours; for Emax: HEK-293T, read-out: FXR cell activity Efficacy;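 as to FXR cell activity Efficacy: Emax relative to maximal signal of reference agonist chenodeoxycholic acid (CDCA)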
T2 construct: expressed in transfected cells; host or cells: HEK 293T (FXR HEK 293T DA)
Method: Compound Dilution: The compound to be tested was prepared as a 100 μM DMSO solution, and then the compound was diluted 3-fold to 10 concentration points. The reference compound was prepared as a 100 μM DMSO solution, and then diluted 1.3-fold to 10 concentration points. The diluted DMSO solution was added to the wells of a 384-well plate in a volume of 200 nL per well. 2. […] The 384-well microplate was incubated at 37° C., 5% CO2 for 16 hours. 4. 6 μL of 1 mM LiveBLAzer™-FRET B/G (CCF4-AM) substrate was mixed with 60 μL of B solution and 934 μL of C solution, and added to the wells of the 384-well plate in a volume of 8 μL per well. […] The 384-well microplate was incubated in dark for 2 hours at room temperature. 6. […] 7.

[3] = Pharmacokinetics in mice administrated with single compound; assay type: in vivo, mice (C57BL/6J); conditions: for drug exposure compared with control compound INT-747 / peak concentration compared with control compound INT-747: mice, oral administration at the same dosage
Method: Pharmacokinetics in Mice Administrated with Single Compound:
12 male mice (C57BL/6J) were randomly divided into two groups, i.e., 6 mice per group. […] Plasma (using K2-EDTA as anticoagulant) samples were taken at 0.083, 0.25, 0.5, 1, 2, 4, 6, 8 and 24 hours in the intravenous administration group after administration; and plasma samples were taken at 0.25, 0.5, 1, 2, 4, 6, 8 and 24 hours in the oral administration group after administration. For 6 animals in each group, blood samples were collected for 3 animals at one time point. The first batch of 3 animals was alternately sampled with the second batch of 3 animals. Plasma sample analysis was performed by using LC-MS/MS. The resultant plasma concentrations were plotted with repect to time, and PK parameters were calculated by using Phoenix WinNonlin 6.3.

[4] = Liver-blood ratio experiment of mice via cassette dosing; assay type: in vivo, mice (C57BL/6J); conditions: for Concentration in liver / Concentration in plasma / Concentration ratio of liver to plasma: oral cassette 2 mg/kg
Method: Liver-Blood Ratio Experiment of Mice Via Cassette Dosing
6 male mice (C57BL/6J) were grouped as an oral administration group. 5 kinds of the developed drugs were contained in the formulation, and intragastrical administration was performed at a dose of 2 mg/kg/compound (the vehicle was 0.5% HPMC aqueous solution). The five compounds were firstly and respectively dissolved in the vehicle, and sonicated or whirled to form a 1 mg/mL solution (clear solution or suspension), respectively; and then the solutions of the five compound were mixed in equal volumes (1:1:1:1:1, v:v:v:v:v) into a glass bottle. After intragastrical oral administration, plasma and liver tissue samples were collected from 3 animals at 0.5 h after administration; corresponding samples were collected from the other 3 animals at 3 h after administration. After collection, the liver tissue was homogenized by using ice-cold homogenization buffer (methanol:15 mM PBS buffer (pH 7.4)=1:2, v:v) based on the ratio of liver weight:homogenization buffer volume=1:3. Plasma and liver tissue samples were analyzed by using a five-in-one LC-MS/MS analysis method developed in advance. The concentrations of plasma and liver tissue homogenate were obtained, and the concentration ratios of liver tissue to plasma were calculated by using Excel.

[5] = mouse, plasma, male C57BL/6J mice, oral 10 mg/kg
[6] = oral, same dosage, at 0.5 h and 3 h

T2 sequence (Q96RI1 with tags, fused parts or gaps limits assumed): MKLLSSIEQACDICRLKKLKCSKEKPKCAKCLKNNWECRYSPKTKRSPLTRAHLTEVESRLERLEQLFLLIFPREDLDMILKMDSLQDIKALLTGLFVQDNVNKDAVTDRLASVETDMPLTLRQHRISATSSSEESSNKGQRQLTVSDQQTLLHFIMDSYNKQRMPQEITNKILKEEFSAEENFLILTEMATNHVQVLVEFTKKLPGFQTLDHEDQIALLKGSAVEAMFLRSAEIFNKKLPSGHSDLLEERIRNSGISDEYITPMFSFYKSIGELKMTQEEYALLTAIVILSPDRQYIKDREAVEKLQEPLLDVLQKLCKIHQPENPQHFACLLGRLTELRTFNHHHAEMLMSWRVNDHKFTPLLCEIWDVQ

Row | SMILES | pEC50 [1] | Emax [1] | pEC50 [2] | Emax [2] | also measured
1 | CC[C@H]1[C@@H](O)[C@@H]2[C@H](CC[C@]3(C)[C@@H]([C@H](C)CCN4CC(C(=O)O)CCC4=O)CC[C@@H]23)[C@@]2(C)CC[C@@H](O)C[C@@H]12 (some centres unmarked) [Example 1] | 6.05 | 320% | 4.75 | 134% | 
2 | CC[C@@H]1C2C[C@H](O)CC[C@]2(C)[C@H]2CC[C@]3(C)[C@@H]([C@H](C)CCn4cc(C(=O)O)cn4)CC[C@H]3[C@@H]2[C@@H]1O (some centres unmarked) [Example 4] | 6.14 | 334% | 5.73 | 131% | 
3 | CC[C@H]1[C@@H](O)[C@@H]2[C@H](CC[C@]3(C)[C@@H]([C@H](C)CCn4cc(C(=O)O)ccc4=O)CC[C@@H]23)[C@@]2(C)CC[C@@H](O)C[C@@H]12 [Example 5] | 7.05 | 134% | 6.24 | 190% | 
4 | CC[C@H]1[C@@H](O)[C@@H]2[C@H](CC[C@]3(C)[C@@H]([C@H](C)CCn4ccc(C(=O)O)cc4=O)CC[C@@H]23)[C@@]2(C)CC[C@@H](O)C[C@@H]12 [Example 6] | 6.44 | 375% | 5.29 | 132% | 
5 | CC[C@H]1[C@@H](O)[C@@H]2[C@H](CC[C@]3(C)[C@@H]([C@H](C)CCOc4cccc(C(=O)O)c4)CC[C@@H]23)[C@@]2(C)CC[C@@H](O)C[C@@H]12 [Example 7] | 7.52 | 360% | 7.22 | 140% | 
6 | CC[C@H]1[C@@H](O)[C@@H]2[C@H](CC[C@]3(C)[C@@H]([C@H](C)CCOc4cc(C(=O)O)ccn4)CC[C@@H]23)[C@@]2(C)CC[C@@H](O)C[C@@H]12 [Example 9] | 6.80 | 407% | 6.85 | 130% | 
7 | CC[C@H]1[C@@H](O)[C@@H]2[C@H](CC[C@]3(C)[C@@H]([C@H](C)CCOc4ccc(C(=O)O)nc4)CC[C@@H]23)[C@@]2(C)CC[C@@H](O)C[C@@H]12 [Example 10] | 7.22 | 188% | 6.70 | 138% | 
8 | CC[C@H]1[C@@H](O)[C@@H]2[C@H](CC[C@]3(C)[C@@H]([C@H](C)CCOc4cncc(C(=O)O)c4)CC[C@@H]23)[C@@]2(C)CC[C@@H](O)C[C@@H]12 [Example 11] | 7.52 | 241% | 7.00 | 132% | drug exposure compared with control compound INT-747 [3]: higher; peak concentration compared with control compound INT-747 [3]: higher; AUC [3, 5]: 5.17 µM·h; Cmax [3, 5]: 1430 nM; Tmax [3, 5]: 2 h
9 | CC[C@H]1[C@@H](O)[C@@H]2[C@H](CC[C@]3(C)[C@@H]([C@H](C)CCCn4cc(C(=O)O)ccc4=O)CC[C@@H]23)[C@@]2(C)CC[C@@H](O)C[C@@H]12 [Example 17] | 6.22 | 313% | 5.60 | 131% | 
10 | CC[C@H]1[C@@H](O)[C@@H]2[C@H](CC[C@]3(C)[C@@H]([C@H](C)CCc4cccc(C(=O)O)c4)CC[C@@H]23)[C@@]2(C)CC[C@@H](O)C[C@@H]12 [Example 19] | 6.82 | 251% | 6.43 | 143% | 
11 | CC[C@H]1[C@@H](O)[C@@H]2[C@H](CC[C@]3(C)[C@@H]([C@H](C)CCOc4ccc(C(=O)O)cn4)CC[C@@H]23)[C@@]2(C)CC[C@@H](O)C[C@@H]12 [Example 22] |  | 249% |  |  | drug exposure compared with control compound INT-747 [3]: higher; peak concentration compared with control compound INT-747 [3]: close to; bioavailability ([3]; mouse, plasma, male C57BL/6J mice, oral 10 mg/kg vs intravenous 2 mg/kg): 34%; Concentration in liver ([4]; 0.5 h): 1959 nM; Concentration in plasma ([4]; 0.5 h): 83 nM; Concentration ratio of liver to plasma ([4]; 0.5 h): 24; Concentration in liver ([4]; 3 h): 701 nM; Concentration in plasma ([4]; 3 h): 45 nM; Concentration ratio of liver to plasma ([4]; 3 h): 16; drug concentrations in the liver compared with control compound [4, 6]: higher; liver/blood concentration ratios compared with control compound [4, 6]: higher
12 | CC[C@H]1[C@@H](O)[C@@H]2[C@H](CC[C@]3(C)[C@@H]([C@H](C)CCOc4ncc(C(=O)O)cc4Cl)CC[C@@H]23)[C@@]2(C)CC[C@@H](O)C[C@@H]12 [Example 23] |  | 248% |  | 150% | drug exposure compared with control compound INT-747 [3]: higher; peak concentration compared with control compound INT-747 [3]: higher
13 | CC[C@H]1[C@@H](O)[C@@H]2[C@H](CC[C@]3(C)[C@@H]([C@H](C)CCOc4ncccc4C(=O)O)CC[C@@H]23)[C@@]2(C)CC[C@@H](O)C[C@@H]12 [Example 26] | 6.89 | 280% |  |  | Concentration in liver ([4]; 0.5 h): 3904 nM; Concentration in plasma ([4]; 0.5 h): 387 nM; Concentration ratio of liver to plasma ([4]; 0.5 h): 10; Concentration in liver ([4]; 3 h): 358 nM; Concentration in plasma ([4]; 3 h): 18 nM; Concentration ratio of liver to plasma ([4]; 3 h): 20; drug concentration in the liver compared with control compound ([4]; oral, same dosage, at 0.5 h): higher; liver/blood concentration ratios compared with control compound [4, 6]: higher

From patent publication US11667667B2, “Steroid derivative FXR agonist” (Chia Tai Tianqing Pharmaceutical Group Co., Ltd., priority 2016, dated 2023)
